target: T1, ALK2 (Homo sapiens, UniProt Q04771); assay: LanthaScreen Eu Kinase Binding Assay, ALK2 inhibition; details: 1 micromolar concentration
T1 construct: purchased ThermoFisher Scientific (Life Technologies)
T1 sequence (Q04771 21-509): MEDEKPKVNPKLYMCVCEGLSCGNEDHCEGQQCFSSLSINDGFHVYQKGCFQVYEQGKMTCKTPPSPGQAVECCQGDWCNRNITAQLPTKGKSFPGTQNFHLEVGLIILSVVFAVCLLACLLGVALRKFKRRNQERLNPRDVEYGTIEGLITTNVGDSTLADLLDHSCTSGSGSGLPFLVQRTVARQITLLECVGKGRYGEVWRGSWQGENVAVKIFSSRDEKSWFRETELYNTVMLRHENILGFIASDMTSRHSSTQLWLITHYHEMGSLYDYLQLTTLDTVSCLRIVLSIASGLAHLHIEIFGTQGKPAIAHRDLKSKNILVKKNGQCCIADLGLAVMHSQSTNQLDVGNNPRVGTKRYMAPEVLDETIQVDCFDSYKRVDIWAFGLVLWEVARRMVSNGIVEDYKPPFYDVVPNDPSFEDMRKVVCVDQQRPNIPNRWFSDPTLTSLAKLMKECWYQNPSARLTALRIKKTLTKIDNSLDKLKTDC
Protocol: Biochemical assays to measure the inhibitory effects of the compounds were performed by ThermoFisher Scientific (Life Technologies). ALK2 inhibition was tested using LanthaScreen™ Eu Kinase Binding Assay screening protocol.

inhibition at 1 µM [%]	Structure (SMILES)
> 50	COc1cc(-n2cnc(NC3=NC(C(C)C)=NC4C=COC34)c2)cc(OC)c1OC (stereo not shown) [Compound 105a, 2-isopropyl-N-(1-(3,4,5-trimethoxyphenyl)-1H-imidazol-4-yl)-4a,7a-dihydrofuro[3,2-d]pyrimidin-4-amine]
> 50	COc1cc(-n2cnc(Nc3nc(C(C)CC(=O)O)nc4c3cnn4C(C)C)c2)cc(OC)c1OC (stereo not shown) [Compound 106a, 3-(1-isopropyl-4-((1-(3,4,5-trimethoxyphenyl)-1H-imidazol-4-yl)amino)-1H-pyrazolo[3,4-d]pyrimidin-6-yl)butanoic acid]
> 50	COc1cc(-n2cnc(Nc3nc(C(C)CC(=O)NC4CC4)nc4c3cnn4C(C)C)c2)cc(OC)c1OC (stereo not shown) [Compound 107a, N-cyclopropyl-3-(1-isopropyl-4-((1-(3,4,5-trimethoxyphenyl)-1H-imidazol-4-yl)amino)-1H-pyrazolo[3,4-d]pyrimidin-6-yl)butanamide]
> 50	CNC(=O)CC(C)c1nc(Nc2cn(-c3cc(OC)c(OC)c(OC)c3)cn2)c2cnn(C(C)C)c2n1 (stereo not shown) [Compound 108a, 3-(1-isopropyl-4-((1-(3,4,5-trimethoxyphenyl)-1H-imidazol-4-yl)amino)-1H-pyrazolo[3,4-d]pyrimidin-6-yl)-N-methylbutanamide]
< 50	COc1cc(-n2cnc(Nc3nc(C(C)CC(=O)NCCO)nc4c3cnn4C(C)C)c2)cc(OC)c1OC (stereo not shown) [Compound 109a, N-(2-hydroxyethyl)-3-(1-isopropyl-4-((1-(3,4,5-trimethoxyphenyl)-1H-imidazol-4-yl)amino)-1H-pyrazolo[3,4-d]pyrimidin-6-yl)butanamide]
< 50	COc1cc(-n2cnc(Nc3cc(C4CC4)nc4c(C(C)C)cnn34)c2)cc(OC)c1OC [Compound 110d, 5-cyclopropyl-3-isopropyl-N-(1-(3,4,5-trimethoxyphenyl)-1H-imidazol-4-yl)pyrazolo[1,5-a]pyrimidin-7-amine]
> 50	COc1cc(-n2cnc(Nc3nc(C4CC4)nc4c(C(C)C)cnn34)c2)cc(OC)c1OC [Compound 111d, 2-cyclopropyl-8-isopropyl-N-(1-(3,4,5-trimethoxyphenyl)-1H-imidazol-4-yl)pyrazolo[1,5-a][1,3,5]triazin-4-amine]
> 50	COc1cc(-n2cnc(Nc3nc(C4CC4)nc4c3cnn4C(C)(C)C)c2)cc(OC)c1OC [Compound 112d, 1-(tert-butyl)-6-cyclopropyl-N-(1-(3,4,5-trimethoxyphenyl)-1H-imidazol-4-yl)-1H-pyrazolo[3,4-d]pyrimidin-4-amine]
> 50	CCn1ncc2c(Nc3cn(-c4cc(OC)c(OC)c(OC)c4)cn3)nc(C3CC3)nc21 [Compound 113d, 6-cyclopropyl-1-ethyl-N-(1-(3,4,5-trimethoxyphenyl)-1H-imidazol-4-yl)-1H-pyrazolo[3,4-d]pyrimidin-4-amine]
> 50	COc1cc(-n2cnc(Nc3nc(C4CC4)nc4c3cnn4C)c2)cc(OC)c1OC [Compound 114e, 6-cyclopropyl-1-methyl-N-(1-(3,4,5-trimethoxyphenyl)-1H-imidazol-4-yl)-1H-pyrazolo[3,4-d]pyrimidin-4-amine]
> 50	COc1cc(-n2cnc(Nc3nc(C4CC4)nc4c3CCC4)c2)cc(OC)c1OC [Compound 115b, 2-cyclopropyl-N-(1-(3,4,5-trimethoxyphenyl)-1H-imidazol-4-yl)-6,7-dihydro-5H-cyclopenta[d]pyrimidin-4-amine]
> 50	COc1cc(-n2cnc(Nc3nc(C4CC4)nc4c3cnn4C3CC3)c2)cc(OC)c1OC [Compound 116d, 1,6-dicyclopropyl-N-(1-(3,4,5-trimethoxyphenyl)-1H-imidazol-4-yl)-1H-pyrazolo[3,4-d]pyrimidin-4-amine]
> 50	COc1cc(-n2cnc(Nc3nc(C4CC4)nc4c3cnn4CC(C)C)c2)cc(OC)c1OC [Compound 117e, 6-cyclopropyl-1-isobutyl-N-(1-(3,4,5-trimethoxyphenyl)-1H-imidazol-4-yl)-1H-pyrazolo[3,4-d]pyrimidin-4-amine]
